Test results from patent US6465663B2, “O- or S-substituted tetrahydronaphthalene derivatives having retinoid and/or retinoid antagonist-like biological activity” (Allergan, Inc., priority 1996, dated 2002).

What was measured:
[1] = system: ornithine decarboxylase (ODC); assay: ODC assay: inhibition of TPA induction of ornithine decarboxylase activity; type: in vivo; conditions: concentration of the test compound which causes 80% inhibition in the ODC assay; cell marked (IC80)
Text: A classic measure of retinoic acid activity involves measuring the effects of retinoic acid on ornithine decarboxylase. […] That reference discloses that ornithine decarboxylase (ODC) activity increased precedent to polyamine biosynthesis. It has been established elsewhere that increases in polyamine synthesis can be correlated or associated with cellular proliferation. Thus, if ODC activity could be inhibited, cell hyperproliferation could be modulated. Although all cases for ODC activity increases are unknown, it is known that 12-0-tetradecanoylphorbol-13-acetate (TPA) induces ODC activity. Retinoic acid inhibits this induction of ODC activity by TPA.

RARα = target: T1, RARα (Homo sapiens, UniProt P10276); assay: Ligand binding assay
T1 sequence (P10276 1-462): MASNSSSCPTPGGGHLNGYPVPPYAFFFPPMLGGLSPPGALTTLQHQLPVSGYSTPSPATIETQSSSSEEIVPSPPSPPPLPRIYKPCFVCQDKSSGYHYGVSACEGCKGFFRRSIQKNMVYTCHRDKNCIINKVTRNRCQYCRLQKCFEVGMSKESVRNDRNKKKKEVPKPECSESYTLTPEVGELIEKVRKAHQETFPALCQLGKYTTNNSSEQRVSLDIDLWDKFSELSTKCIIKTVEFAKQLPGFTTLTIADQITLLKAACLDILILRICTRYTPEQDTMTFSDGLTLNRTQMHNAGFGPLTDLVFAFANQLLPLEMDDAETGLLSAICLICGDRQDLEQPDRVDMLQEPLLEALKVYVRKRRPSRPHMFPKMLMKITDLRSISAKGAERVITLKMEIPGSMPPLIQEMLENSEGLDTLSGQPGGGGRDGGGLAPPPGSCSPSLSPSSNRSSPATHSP
Text: (§1) Other assays described below, measure the ability of the compounds of the present invention to bind to, and/or activate various retinoid receptor subtypes. When in these assays a compound binds to a given receptor subtype and activates the transcription of a reporter gene through that subtype, then the compound is considered an agonist of that receptor subtype. […] In the below described assays the ability of the compounds to bind to RARα, RARβ, RARγ, RXRα, RXRβ and RXRΓ receptors, and the ability or inability of the compounds to activate transcription of a reporter gene through these receptor subtypes can be tested.
(§2) A holoreceptor transactivation assay and a ligand binding assay which measure the antagonist/agonist like activity of the compounds of the invention, or their ability to bind to the several retinoid receptor subtypes, respectively, are described in published PCT Application No. WO WO93/11755 (particularly on pages 30-33 and 37-41) published on Jun. 24, 1993, the specification of which is also incorporated herein by reference. A description of the holoreceptor transactivation assay is also provided below.
(§3) CV1 cells (5,000 cells/well) were transfected with an RAR reporter plasmid MTV-TREp-LUC (50 ng) along with one of the RAR expression vectors (10 ng) in an automated 96-well format by the calcium phosphate procedure of Heyman et al. Cell 68, 397-406, (1992). For RXRα and RXRγ transactivation assays, an RXR-responsive reporter plasmid CRBPII-tk-LUC (50 ng) along with the appropriate RXR expression vectors (10 ng) was used substantially as described by Heyman et al. above, and Allegretto et al. J. Biol. Chem. 268, 26625-26633. For RXRβ transactivation assays, an RXR-responsive reporter plasmid CPRE-tk-LUC ([…]) along with RXRβ expression vector ([…]) was used as described in above. These reporters contain DRI elements from human CRBPII and certain DRI elements from promoter, respectively. (see Mangelsdorf et al. The Retinoids: Biology, Chemistry and Medicine, pp 319-349, Raven Press Ltd., New York and Heyman et al., cited above) (1, 8). A β-galactosidase (50 ng) expression vector was used as an internal control in the transfections to normalize for variations in transfection efficiency. The cells were transfected in triplicate for 6 hours, followed by incubation with retinoids for 36 hours, and the extracts were assayed for luciferase and β-galactosidase activities. The detailed experimental procedure for holoreceptor transactivations has been described in Heyman et al. above, and Allegretto et al. cited above. The results obtained in this assay are expressed in EC50 numbers, as they are also in the chimeric receptor transactivation assay. The Heyman et al. Cell 68, 397-406, Allegretto et al. J. Biol. Chem. 268, 26625-26633, and Mangelsdorf et al. The Retinoids: Biology, Chemistry and Medicine, pp 319-349, Raven Press Ltd., New York, are expressly incorporated herein by reference. The results of ligand binding assay are expressed in Kd numbers. (See Cheng et al. Biochemical Pharmacology Vol. 22 pp 3099-3108, expressly incorporated herein by reference.)

RARβ = target: T2, RARβ (Homo sapiens, UniProt P10826); assay: Ligand binding assay
T2 sequence (P10826 1-455): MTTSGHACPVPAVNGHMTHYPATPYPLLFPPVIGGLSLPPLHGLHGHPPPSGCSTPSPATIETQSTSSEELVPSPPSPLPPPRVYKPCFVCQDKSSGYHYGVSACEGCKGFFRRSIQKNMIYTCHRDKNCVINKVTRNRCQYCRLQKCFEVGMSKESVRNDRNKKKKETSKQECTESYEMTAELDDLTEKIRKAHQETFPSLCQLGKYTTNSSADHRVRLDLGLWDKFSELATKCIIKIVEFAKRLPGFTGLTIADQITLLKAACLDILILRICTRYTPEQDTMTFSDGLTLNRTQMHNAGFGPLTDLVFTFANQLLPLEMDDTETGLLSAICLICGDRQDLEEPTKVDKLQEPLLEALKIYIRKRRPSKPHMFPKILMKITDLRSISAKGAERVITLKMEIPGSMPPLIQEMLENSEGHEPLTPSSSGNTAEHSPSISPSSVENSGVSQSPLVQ
Text: as §1, §2, §3

RARγ = target: T3, RARγ (Homo sapiens, UniProt P13631); assay: Ligand binding assay
T3 sequence (P13631 1-454): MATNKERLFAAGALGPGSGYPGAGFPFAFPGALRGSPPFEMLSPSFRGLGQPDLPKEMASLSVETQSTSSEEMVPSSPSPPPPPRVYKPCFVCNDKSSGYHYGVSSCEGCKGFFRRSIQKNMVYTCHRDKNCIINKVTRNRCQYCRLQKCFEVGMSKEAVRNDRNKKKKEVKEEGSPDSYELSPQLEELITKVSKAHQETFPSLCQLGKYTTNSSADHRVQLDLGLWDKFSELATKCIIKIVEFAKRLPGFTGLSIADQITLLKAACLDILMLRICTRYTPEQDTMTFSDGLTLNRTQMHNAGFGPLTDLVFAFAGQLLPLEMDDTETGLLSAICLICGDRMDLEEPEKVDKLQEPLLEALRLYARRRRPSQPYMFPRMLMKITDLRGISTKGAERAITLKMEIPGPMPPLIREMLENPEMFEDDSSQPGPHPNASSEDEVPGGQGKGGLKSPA
Text: as §1, §2, §3

SMILES	IC80 [1]	Kd (RARα) [nM]	Kd (RARβ) [nM]	Kd (RARγ) [nM]
CC1(C)CC=C(c2cccs2)c2ccc(C(=O)C=Cc3ccc(C(=O)O)cc3)cc21 [Compound D34, 4-[3-oxo-3-(7,8-dihydro-5-(2-thienyl)-8,8-dimethyl-2-naphthalenyl)-1-propenyl]-benzoic acid]	4.3 (IC80) nmols	235	200	530
CC1(C)CC=C(Sc2ccccc2)c2cc(/C=C/c3ccc(C(=O)O)cc3)ccc21 [Compound A18, (E)-4-[2-(5,6-dihydro-5,5-dimethyl-8-(phenylthio)-naphthalen-2-yl)ethenyl] benzoic acid]	–	538	193	162
CC1(C)CC=C(S(=O)(=O)c2ccccc2)c2cc(C(=O)Oc3ccc(C(=O)O)cc3)ccc21 [Compound E27]	–	551	535	> 1000
CC1(C)CCC2(SCCCS2)c2cc(/C=C/c3ccc(C(=O)O)cc3)ccc21 [Compound A24]	–	283	92	259
CC1(C)CCC(OC2CCCCO2)c2cc(C(=O)Oc3ccc(C(=O)O)cc3)ccc21 (single isomer, unassigned) [Compound E67, 4-[5,6,7,8-tetrahydro-8(S or R)-(2′(S or R)tetrahydropyranoxy)-5,5-dimethyl-2-napthoyloxy]benzoic Acid]	–	77	302	375
COCOC1CCC(C)(C)c2ccc(N=Nc3ccc(C(=O)O)cc3)cc21 (racemic) [Compound D7, (+/−) 4-[(5,5-Dimethyl-8-(methoxymethyloxy)-5,6,7,8-tetrahydronaphthalen-2-yl)azo]benzoic Acid]	–	> 1000	226	> 1000
CC(C)(C)C1=CCC(C)(C)c2ccc(C(=O)Nc3ccc(C(=O)O)cc3)cc21 [Compound E80, 4-[(5,5-dimethyl-5,6-dihydro-8-(1,1-dimethylethyl)-2-naphthalenyl)carboxamido]-benzoic Acid]	–	394	531	901
CCO/N=C1\CCC(C)(C)c2ccc(/C(C)=C/C=C/C(C)=C/C(=O)O)cc21 [Compound C25, 7-[4,4-dimethyl-3,4-dihydro-1(2H)-anti-(O-ethyl oxime)-naphth-7-yl]3,7-dimethyl-hepta-2(E),4(E),6(E)-trienoic Acid]	–	19	12	42
CCC(CC)=C1CCC(C)(C)c2ccc(/C=C/c3ccc(C(=O)O)cc3)cc21 [Compound A28, (E)-4-[2-(5,6-Dihydro-5,5-dimethyl-8(7H)-(pentyliden-3-yl)-naphthalen-2-yl)ethenyl]benzoic acid]	–	4	3	42
CC1(C)CCC(=O)c2cc(/C=C/c3ccc(C(=O)O)cc3)ccc21 [Compound A2a, (E)-4-[2-(5,6,7,8-tetrahydro-5,5-dimethyl-8-oxo-2-naphthalenyl)ethenyl]-benzoic acid]	–	150	219	421
CC(C)=C1CCC(C)(C)c2ccc(C(=O)Oc3ccc(C(=O)O)cc3)cc21 [Compound E14]	–	36	35	455
CC(C)=C1CCC(C)(C)c2ccc(C(=O)Nc3ccc(C(=O)O)cc3)cc21 [Compound E17]	–	192	378	> 1000
